According to the NIST ThermoML archive (doi:10.1016/j.fluid.2013.06.006):
Numbers after ± are expanded uncertainties.

Legend:
[1] = refractive index (Na D-line) (dimensionless); details: 293.2 K; 101.33 kPa; Liquid; Standard Abbe refractometry
[2] = 293.2 K; 101.33 kPa; Liquid; Vibrating tube method

| refractive index [1] | mass density [2] [kg/m3] | SMILES |
| --- | --- | --- |
| 1.3983 ± 0.0005 | 809.33 ± 0.26 | CCCCO [butan-1-ol] |
| 1.3711 ± 0.0005 | 1219.5 ± 0.4 | O=CO [formic acid] |
| 1.4244 ± 0.0005 | 821.63 ± 0.26 | CCCCCCCO [heptan-1-ol] |
| 1.4181 ± 0.0005 | 818.21 ± 0.26 | CCCCCCO [hexan-1-ol] |
| 1.41 ± 0.0005 | 813.98 ± 0.26 | CCCCCO [pentan-1-ol] |
| 1.3328 ± 0.0005 | – | O [water] |
